Patent publication US6387955B1, “Enhanced anti-angiogenic activity of permanently charged derivatives of steroid hormones” (Pharmos Corporation, priority 1997, dated 2002)

Experiments:
MCF-7 tumors [1] = assay: Growth of MCF-7 tumors implanted in ventral fat pad of nude mice, tumor size by MRI; assay type: in vivo; settings: for change in tumor size relative to day 0 (in words): slow-release pellet s.c. in flank, 25 day time course, MRI
Description: (§1) Female CD1-nu/nu athymic mice (6 weeks old) were obtained from the Weizmann Institute Department of Animal Services. MCF-7 cells, serially passed as described above, were detached from the culturing flasks with 0.03% EDTA in phosphate buffered saline (PBS) and washed several times in normal saline. Cells (10^7/innoculum) were then injected into the ventral fat pad at the level of the breast. Coincident with cell introduction, a slow-release pellet of estradiol (0.72 mg/pellet, 45-day release profile; Innovative Research, Sarasota, Fla.) was implanted subcutaneously in the flank of the animal. Mice were anesthetized with ketamine/Rompun (i.p.) for the surgical procedures. […] At this point, animals were randomized into four study groups. In the first, the estrogen pellet was removed and replaced with a slow-release TMI-laden pellet (6.3 mg, 45-day release) (n=5). In the second group, the estrogen pellet was removed and replaced with a tamoxifen pellet (n=7). The third group was treated with a blank (placebo) pellet (n=5), while the fourth group was reimplanted with an estradiol pellet (n=4). TMI and placebo-treated animals were imaged (under ketamine/Rompun anesthesia) either immediately before pellet exchange (day 0) or at day 3, 6, 12 and 25 after pellet exchange.
MRI images were recorded with a Bruker 4.7 (tesla)/30 Biospec spectrometer (Bruker Medizintechnik, Rheinstetten, Germany). 1H Spin-echo images were recorded at 200.12 MHz using a custom-made 4.5 cm rf coil with an image data matrix of 256×128 pixels. Pilot scans of the tumors were completed using a fast transverse multi-slice spin-echo sequence (giving T1-weighted spectra; inter-echo time (TE)=16 msec, recovery time (TR)=500 msec) followed by T2-weighted sequences in which axial slices perpendicular to the spine (i.e., a coronal orientation) were recorded. In the latter case, spin-echo images were obtained using a 4 cm field of view, 1 mm slice thickness, 1.2 mm slice-to-slice distance and a four-sequence average. The TE and TR were optimized to provide the best image contrast generating values of 80 and 3200 msec, respectively. This gave a total imaging time of approximately 30 min. […] Tumor size was calculated using a slice-to-slice reconstruction in which the slice surface area was obtained from histograms provided by the resident Bruker software package using the following relationship: […]
where XSA is the cross-sectional area of an internal slice, ES is the cross-sectional area of an edge slice, l is the slice thickness and ssd is the distance from the middle of one slice to the middle of the next. For image analysis, the average pixel intensity of viable portions of MCF-7 tumors was determined from a central tumor slice using histograms generated by the dedicated Bruker software package. […]

[2] = tested on: gelatinase A (MMP-2), 72 kDa; assay: Collagenolytic activity by zymography in human fibrosarcoma cell supernatant, gelatinase A; assay type: cell-based
Description: (§2) HT-1080 cells (CCL 121), derived from a metastatic lesion of a human fibrosarcoma and primary bovine endothelial cells were obtained from the American Type Culture collection (Rockville, Md.). Cells were maintained under an atmosphere of 5% CO2, in Dulbecco's Minimal Essential Medium (DMEM) supplemented with 10% fetal calf serum, glutamine, vitamins, non-essential amino acids and antibiotics (Biological Industries, Kibbutz Beth HaEmek, Israel).
(§3) Sub-confluent cell cultures were incubated for 6 to 24 hours in serum-free DMEM, either with or without various concentrations of TMI or tamoxifen, and the resultant supernatant was analyzed for collagenolytic activity. The collagenolytic activity was determined using a gelatin-impregnated (1 mg/ml, Difco, Detroit Mich.) SDS-PAGE 8% gel, as previously described, with minor modifications. Briefly, the culture media samples were separated on the substrate-impregnated gels under non-reducing conditions, followed by 30 min of incubation of 2.5% Triton X-100 (BDH, UK). The gels were then incubated for 16 hours at 37° C. in 50 mM TRIS, 0.2 M NaCl, 5 mM CaCl2, 0.02% BRIJ 35 (w/v) at pH 7.6. […] The intensity of the stained bands was then determined using a computerized densitometer (Molecular Dynamics Model 300A). […]

[3] = tested on: gelatinase B (MMP-9), 92 kDa; assay: Collagenolytic activity by zymography in human fibrosarcoma cell supernatant, gelatinase B; assay type: cell-based
Description: as §2, §3

[4] = tested on: MCF-7 human breast cancer; settings: MCF-7 human breast cancer implanted in nude mice; cited from earlier work
MCF-7 tumors [5] = assay: Tumor necrosis in MCF-7 tumors by T2-weighted MRI; assay type: in vivo, nude mice
Description: as §1
MRI images were recorded with a Bruker 4.7 (tesla)/30 Biospec spectrometer (Bruker Medizintechnik, Rheinstetten, Germany). 1H Spin-echo images were recorded at 200.12 MHz using a custom-made 4.5 cm rf coil with an image data matrix of 256×128 pixels. Pilot scans of the tumors were completed using a fast transverse multi-slice spin-echo sequence (giving T1-weighted spectra; inter-echo time (TE)=16 msec, recovery time (TR)=500 msec) followed by T2-weighted sequences in which axial slices perpendicular to the spine (i.e., a coronal orientation) were recorded. In the latter case, spin-echo images were obtained using a 4 cm field of view, 1 mm slice thickness, 1.2 mm slice-to-slice distance and a four-sequence average. The TE and TR were optimized to provide the best image contrast generating values of 80 and 3200 msec, respectively. This gave a total imaging time of approximately 30 min. Under the conditions reported, the in-plane resolution was 155×310 μm. Tumor size was calculated using a slice-to-slice reconstruction in which the slice surface area was obtained from histograms provided by the resident Bruker software package using the following relationship:
where XSA is the cross-sectional area of an internal slice, ES is the cross-sectional area of an edge slice, l is the slice thickness and ssd is the distance from the middle of one slice to the middle of the next. For image analysis, the average pixel intensity of viable portions of MCF-7 tumors was determined from a central tumor slice using histograms generated by the dedicated Bruker software package. […] Fibrosis was defined as those areas manifesting a decrease in pixel intensity of […].
In vivo tumor histology was assessed for TMI and placebo-treated tumors using T2-weighted MR images. […] At this time, the area of necrosis was two-fold higher than that observed on day 0 (increasing from an average of 20% to approximately 40%).

MCF-7 tumor = assay: TBB in the MCF-7 model, daily dosing (preliminary data); assay type: in vivo, mice; settings: two weeks of daily dosing
Excerpt: Preliminary data on TBB in the MCF-7 model have also been generated. […] Administration of TBB to MCF-7 tumor-bearing mice caused significant tumor regression that amounted to 32% over two weeks of daily dosing. TMI induced a 20% regression over a 25 day time course.

Tolerability in mice = assay type: in vivo
[6] = doses 0.5 to 20 μM, 6 and 24 hours, result at or up to 20 μM
[7] = direct comparison, human fibrosarcoma cells

Compound	change in tumor size relative to day 0 (in words) (MCF-7 tumors [1])	inhibition of gelatinase A (MMP-2) collagenolytic activity [2, 6]	inhibition of gelatinase B (MMP-9) collagenolytic activity [3, 6]	effect on tumor growth [4]	maximum extent of necrosis (MCF-7 tumors [5]; preliminary comparison of TMI and tamoxifen) [%]	onset of tumor necrosis (MCF-7 tumors [5]; sampling day after pellet exchange) [days]	tolerance of tumors to the drug and regrowth over time (MCF-7 tumors [1]; MCF-7 tumors in nude mice)	potency relative to TMI as inhibitor of 72 kDa (gelatinase A, MMP-2) collagenase [2, 7]	tumor regression (MCF-7 tumor) [%]	potency relative to TMI as inhibitor of 92 kDa (gelatinase B, MMP-9) collagenase [3, 7]	adverse effects (Tolerability in mice; doses as high as 10 mg/Kg given daily over a two week time course)	tolerability (Tolerability in mice; mice)
C[C@]12CC[C@@H]3c4ccc(O)cc4CC[C@H]3[C@@H]1CC[C@@H]2O [estrogen, estradiol]	more than doubled in size											
CC/C(=C(\c1ccccc1)c1ccc(OCCN(C)C)cc1)c1ccccc1 [tamoxifen, reference compound]	tumoristatic	no significant inhibitory activity	no significant inhibitory activity	merely slowed tumor growth	50	≤ 3	became tolerant to the effects of the drug and began to regrow over time					
Tamoxifen benzyl bromide [TBB]								more potent than TMI	32	more potent than TMI	no adverse effects	well tolerated
